Laboratory results as given in ChEMBL document CHEMBL5321285 (J Med Chem, 2023).
≈ marks a conversion by molar mass, not a printed value. Calls of active or inactive are those of the source. The calls are words filed in the database; no cut-off is given here.

Tests used:
[1] = molecular target: Cytochrome P450 2C9 (Homo sapiens, UniProt P11712); assay: Inhibition of CYP2C9 in human liver microsomes using tolbutamide as substrate incubated for 20 mins by UPLC-MS/MS analysis; type: ADME, Microsome
[2] = Tmax in Wistar rat at 1 mg/kg, iv by UPLC-MS/MS analysis; type: ADME, organism-based; details: in vivo
[3] = Lipophilicity, logD of the compound; type: physicochemical; details: octanol/water
[4] = Clearance in Wistar rat at 1 mg/kg, iv by UPLC-MS/MS analysis; type: ADME, organism-based; details: in vivo
[5] = Lipophilicity, logP of compound; type: physicochemical; details: octanol/water
[6] = molecular target: Voltage-gated inwardly rectifying potassium channel KCNH2 (Homo sapiens, UniProt Q12809); assay: Inhibition of hERG expressed in CHO cells at holding potential of -80 mV measured for 15 seconds by whole cell patch clamp assay; type: toxicity, cell-based
[7] = test system: Neuron; assay: Neuroprotective activity against MPP+ induced rat neurons at 10 uM pretreated with compond for 1 hr followed by MPP+ addition and measured after 48 hrs; type: functional, cell-based; details: time 49.0 hrs
[8] = Metabolic stability in mouse liver microsome assessed as parent compound remaining at 1 uM measured after 1 hr in presence of NADPH regenerating system by UPLC-MS/MS analysis; type: ADME; details: liver microsomes, read-out: Stability
[9] = Metabolic stability in mouse liver microsome assessed as intrinsic clearance incubated upto 60 mins in presence of NADPH regenerating system by UPLC-MS/MS analysis; type: ADME; details: liver microsomes, read-out: CLH
[10] = AUC in Wistar rat at 1 mg/kg, iv by UPLC-MS/MS analysis; type: ADME, organism-based; parameters: dose 1 mg/kg, route iv; details: in vivo
[11] = Apparent permeability across apical to basolateral side in human Caco-2 cells incubated for 2 hrs by UPLC-MS/MS analysis; type: ADME, cell-based
[12] = Ratio AUC in Wistar rat brain to plasma at 10 mg/kg, po measured for 10 mins by UPLC-MS/MS analysis; type: ADME, organism-based; details: brain and plasma, read-out: Ratio AUC
[13] = Tmax in Wistar rat at 10 mg/kg, po by UPLC-MS/MS analysis; type: ADME, organism-based; details: in vivo
[14] = AUC in Wistar rat at 10 mg/kg, po by UPLC-MS/MS analysis; type: ADME, organism-based; parameters: dose 10 mg/kg, route po; details: in vivo
[15] = molecular target: Sigma intracellular receptor 2 (Homo sapiens, UniProt Q5BJF2); assay: Displacement of [3H]-1,3-di-O-tolylguanidine from human sigma 2 receptor/TMEM97 transfected in sigma 1 receptor knockout HEK293 cell membranes assessed as inhibition constant measured after 120 mins by microbeta scintillation counting analysis; parameters: species or system Cell membrane
[16] = Metabolic stability in human liver microsome assessed as parent compound remaining at 1 uM measured after 1 hr in presence of NADPH regenerating system by UPLC-MS/MS analysis; type: ADME; details: liver microsomes, read-out: Stability
[17] = Efflux ratio of apparent permeability across […] in human Caco-2 cells; type: ADME, cell-based
[18] = Cmax in Wistar rat at 10 mg/kg, po by UPLC-MS/MS analysis; type: ADME, organism-based; parameters: dose 10 mg/kg, route po; details: in vivo
[19] = Volume of distribution at steady state in Wistar rat at 1 mg/kg, iv by UPLC-MS/MS analysis; type: ADME, organism-based; details: in vivo, read-out: Vdss
[20] = Metabolic stability in rat liver microsome assessed as intrinsic clearance incubated upto 60 mins in presence of NADPH regenerating system by UPLC-MS/MS analysis; type: ADME; details: liver microsomes, read-out: CLH
[21] = Metabolic stability in human liver microsome assessed as intrinsic clearance incubated upto 60 mins in presence of NADPH regenerating system by UPLC-MS/MS analysis; type: ADME; details: liver microsomes, read-out: CLH
[22] = molecular target: Cytochrome P450 3A4 (Homo sapiens, UniProt P08684); assay: Inhibition of CYP3A4 in human liver microsomes using testosterone as substrate incubated for 20 mins by UPLC-MS/MS analysis; type: ADME, Microsome
[23] = Half life in Wistar rat at 1 mg/kg, iv by UPLC-MS/MS analysis; type: ADME, organism-based; details: in vivo
[24] = molecular target: T1, Cytochrome P450 1A2 (Homo sapiens, UniProt P05177); assay: Inhibition of CYP1A2 in human liver microsomes using phenacetin as substrate incubated for 20 mins by UPLC-MS/MS analysis; type: ADME, Microsome
T1 sequence (P05177 whole entry): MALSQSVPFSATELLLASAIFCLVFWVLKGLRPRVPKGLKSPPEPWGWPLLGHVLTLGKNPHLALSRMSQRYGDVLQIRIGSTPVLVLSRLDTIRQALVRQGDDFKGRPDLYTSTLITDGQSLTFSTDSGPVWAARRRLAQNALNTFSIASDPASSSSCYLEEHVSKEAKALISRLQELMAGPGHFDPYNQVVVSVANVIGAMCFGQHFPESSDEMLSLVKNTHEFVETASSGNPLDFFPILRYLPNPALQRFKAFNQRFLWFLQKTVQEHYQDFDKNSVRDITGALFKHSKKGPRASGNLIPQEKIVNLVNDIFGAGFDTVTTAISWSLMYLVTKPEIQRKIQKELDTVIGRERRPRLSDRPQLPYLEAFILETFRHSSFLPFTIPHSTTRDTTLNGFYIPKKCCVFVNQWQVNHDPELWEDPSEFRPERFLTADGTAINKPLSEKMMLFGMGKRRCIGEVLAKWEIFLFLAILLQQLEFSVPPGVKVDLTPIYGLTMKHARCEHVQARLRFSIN

[25] = test system: Rattus norvegicus; assay: Anti-alzheimer activity against amyloid beta peptide-induced cognitive impairment in Wistar rat model at 10 mg/kg, po measured for 10 days; type: functional, organism-based; details: time 10.0 day
[26] = species: Homo sapiens; assay: Selectivity ratio of Ki for displacement of [3H]-(+)-pentazocine from human sigma1 receptor transfected in HEK293 cell membranes assessed as inhibition constant to Ki for displacement of [3H]-1,3-di-O-tolylguanidine from human sigma 2 receptor/TMEM97 transfected in sigma 1 receptor knockout HEK293 cell membranes assessed as inhibition constant
[27] = molecular target: Cytochrome P450 2C19 (Homo sapiens, UniProt P33261); assay: Inhibition of CYP2C19 in human liver microsomes using S mephenytoin as substrate incubated for 20 mins by UPLC-MS/MS analysis; type: ADME, Microsome
[28] = molecular target: Cytochrome P450 2D6 (Homo sapiens, UniProt P10635); assay: Inhibition of CYP2D6 in human liver microsomes using bufuralol as substrate incubated for 20 mins by UPLC-MS/MS analysis; type: ADME, Microsome
[29] = Cmax in Wistar rat at 1 mg/kg, iv by UPLC-MS/MS analysis; type: ADME, organism-based; parameters: dose 1 mg/kg, route iv; details: in vivo
[30] = molecular target: Sigma non-opioid intracellular receptor 1 (Homo sapiens, UniProt Q99720); assay: Displacement of [3H]-(+)-pentazocine from human sigma1 receptor transfected in HEK293 cell membranes assessed as inhibition constant incubated for 120 mins in presence of haloperidol by microbeta scintillation counter analysis; parameters: species or system Cell membrane
[31] = Dissociation constant, pKa of the compound; type: physicochemical
[32] = Metabolic stability in rat liver microsome assessed as parent compound remaining at 1 uM measured after 1 hr in presence of NADPH regenerating system by UPLC-MS/MS analysis; type: ADME; details: liver microsomes, read-out: Stability
[33] = Oral bioavailability in Wistar rat at 10 mg/kg by UPLC-MS/MS analysis; type: ADME, organism-based; details: in vivo
[34] = Solubility of the compound at pH 7.4; type: physicochemical; details: buffer
[35] = Drug concentration in Wistar rat plasma at 10 mg/kg, po measured for 10 mins by UPLC-MS/MS analysis; type: ADME, organism-based

Cytochrome P450 2D6, sequence (P10635 whole entry): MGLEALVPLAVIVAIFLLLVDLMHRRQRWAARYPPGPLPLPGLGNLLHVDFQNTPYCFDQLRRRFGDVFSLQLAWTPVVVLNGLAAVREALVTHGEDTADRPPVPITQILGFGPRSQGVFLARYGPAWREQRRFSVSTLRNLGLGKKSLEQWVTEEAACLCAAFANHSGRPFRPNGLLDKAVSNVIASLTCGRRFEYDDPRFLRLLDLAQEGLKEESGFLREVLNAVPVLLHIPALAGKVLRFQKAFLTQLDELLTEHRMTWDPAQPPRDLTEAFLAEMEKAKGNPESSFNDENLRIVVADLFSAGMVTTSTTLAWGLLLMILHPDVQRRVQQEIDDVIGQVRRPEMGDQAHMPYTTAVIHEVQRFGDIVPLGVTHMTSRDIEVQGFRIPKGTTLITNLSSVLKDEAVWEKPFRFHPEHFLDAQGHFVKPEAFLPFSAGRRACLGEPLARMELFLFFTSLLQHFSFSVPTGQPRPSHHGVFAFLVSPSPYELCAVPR
Voltage-gated inwardly rectifying potassium channel KCNH2, sequence (Q12809 whole entry): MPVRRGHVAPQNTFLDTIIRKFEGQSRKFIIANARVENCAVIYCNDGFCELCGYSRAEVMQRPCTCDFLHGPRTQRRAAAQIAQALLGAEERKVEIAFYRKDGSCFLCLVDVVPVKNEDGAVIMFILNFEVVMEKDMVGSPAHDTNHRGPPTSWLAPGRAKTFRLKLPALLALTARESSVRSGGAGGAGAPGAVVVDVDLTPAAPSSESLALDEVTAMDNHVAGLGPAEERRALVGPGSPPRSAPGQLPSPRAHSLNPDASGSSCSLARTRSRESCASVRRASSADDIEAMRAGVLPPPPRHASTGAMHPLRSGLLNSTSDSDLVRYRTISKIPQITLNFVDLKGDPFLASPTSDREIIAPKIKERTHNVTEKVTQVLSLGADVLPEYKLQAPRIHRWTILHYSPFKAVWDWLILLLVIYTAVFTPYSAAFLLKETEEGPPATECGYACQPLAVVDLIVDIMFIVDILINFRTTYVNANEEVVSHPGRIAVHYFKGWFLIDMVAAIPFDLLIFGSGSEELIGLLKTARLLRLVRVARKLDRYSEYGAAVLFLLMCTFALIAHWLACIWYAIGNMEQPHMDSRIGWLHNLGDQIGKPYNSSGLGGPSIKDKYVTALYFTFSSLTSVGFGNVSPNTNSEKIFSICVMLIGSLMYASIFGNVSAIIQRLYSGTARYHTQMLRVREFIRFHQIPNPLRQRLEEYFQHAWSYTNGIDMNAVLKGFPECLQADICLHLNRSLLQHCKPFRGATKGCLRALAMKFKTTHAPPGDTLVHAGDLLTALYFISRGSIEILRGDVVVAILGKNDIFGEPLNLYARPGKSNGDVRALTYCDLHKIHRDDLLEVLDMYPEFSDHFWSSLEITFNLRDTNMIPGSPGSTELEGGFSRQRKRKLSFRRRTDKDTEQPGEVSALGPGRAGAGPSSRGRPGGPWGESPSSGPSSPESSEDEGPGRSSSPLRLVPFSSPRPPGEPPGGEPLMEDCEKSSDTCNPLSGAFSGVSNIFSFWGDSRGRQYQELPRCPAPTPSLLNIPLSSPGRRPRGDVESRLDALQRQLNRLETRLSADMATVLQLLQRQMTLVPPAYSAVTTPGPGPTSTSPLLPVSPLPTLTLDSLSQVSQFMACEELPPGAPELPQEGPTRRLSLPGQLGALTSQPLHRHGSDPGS
Cytochrome P450 3A4, sequence (P08684 whole entry): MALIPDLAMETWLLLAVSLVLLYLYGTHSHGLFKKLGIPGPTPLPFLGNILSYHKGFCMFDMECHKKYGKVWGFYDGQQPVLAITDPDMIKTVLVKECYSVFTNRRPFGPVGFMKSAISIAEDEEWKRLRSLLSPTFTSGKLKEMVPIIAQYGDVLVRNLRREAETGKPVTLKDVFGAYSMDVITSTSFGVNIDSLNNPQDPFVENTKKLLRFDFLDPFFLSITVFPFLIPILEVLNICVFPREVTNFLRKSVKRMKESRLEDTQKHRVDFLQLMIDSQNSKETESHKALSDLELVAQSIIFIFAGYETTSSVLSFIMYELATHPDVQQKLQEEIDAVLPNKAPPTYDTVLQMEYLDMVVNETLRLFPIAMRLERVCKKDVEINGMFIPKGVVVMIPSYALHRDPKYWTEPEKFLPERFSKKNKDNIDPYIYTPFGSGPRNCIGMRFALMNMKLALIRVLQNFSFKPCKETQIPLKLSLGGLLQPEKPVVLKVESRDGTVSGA
Cytochrome P450 2C19, sequence (P33261 whole entry): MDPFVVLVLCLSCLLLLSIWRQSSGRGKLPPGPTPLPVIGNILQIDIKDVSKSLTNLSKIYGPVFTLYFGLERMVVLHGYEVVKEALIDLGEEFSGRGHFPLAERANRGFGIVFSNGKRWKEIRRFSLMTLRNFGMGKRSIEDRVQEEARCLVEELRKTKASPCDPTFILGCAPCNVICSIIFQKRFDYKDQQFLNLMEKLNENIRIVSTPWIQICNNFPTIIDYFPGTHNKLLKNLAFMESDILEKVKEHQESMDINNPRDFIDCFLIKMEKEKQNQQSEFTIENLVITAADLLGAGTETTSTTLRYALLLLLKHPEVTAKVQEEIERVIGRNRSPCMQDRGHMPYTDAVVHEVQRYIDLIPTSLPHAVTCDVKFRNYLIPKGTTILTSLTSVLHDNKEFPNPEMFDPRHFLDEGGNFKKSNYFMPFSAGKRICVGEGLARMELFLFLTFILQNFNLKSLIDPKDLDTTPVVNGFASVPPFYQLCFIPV
Sigma intracellular receptor 2, sequence (Q5BJF2 whole entry): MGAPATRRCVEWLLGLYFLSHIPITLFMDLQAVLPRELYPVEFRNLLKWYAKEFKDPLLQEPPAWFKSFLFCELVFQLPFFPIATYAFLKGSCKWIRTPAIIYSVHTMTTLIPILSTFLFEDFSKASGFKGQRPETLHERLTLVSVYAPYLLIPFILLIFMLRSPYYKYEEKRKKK
Sigma non-opioid intracellular receptor 1, sequence (Q99720 whole entry): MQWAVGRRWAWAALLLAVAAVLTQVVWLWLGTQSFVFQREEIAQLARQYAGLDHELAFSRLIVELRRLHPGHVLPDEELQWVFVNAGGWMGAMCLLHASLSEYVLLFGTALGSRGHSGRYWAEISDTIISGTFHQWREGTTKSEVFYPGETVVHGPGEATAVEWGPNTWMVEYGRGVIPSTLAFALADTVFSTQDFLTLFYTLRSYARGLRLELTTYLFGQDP
Cytochrome P450 2C9, sequence (P11712 whole entry): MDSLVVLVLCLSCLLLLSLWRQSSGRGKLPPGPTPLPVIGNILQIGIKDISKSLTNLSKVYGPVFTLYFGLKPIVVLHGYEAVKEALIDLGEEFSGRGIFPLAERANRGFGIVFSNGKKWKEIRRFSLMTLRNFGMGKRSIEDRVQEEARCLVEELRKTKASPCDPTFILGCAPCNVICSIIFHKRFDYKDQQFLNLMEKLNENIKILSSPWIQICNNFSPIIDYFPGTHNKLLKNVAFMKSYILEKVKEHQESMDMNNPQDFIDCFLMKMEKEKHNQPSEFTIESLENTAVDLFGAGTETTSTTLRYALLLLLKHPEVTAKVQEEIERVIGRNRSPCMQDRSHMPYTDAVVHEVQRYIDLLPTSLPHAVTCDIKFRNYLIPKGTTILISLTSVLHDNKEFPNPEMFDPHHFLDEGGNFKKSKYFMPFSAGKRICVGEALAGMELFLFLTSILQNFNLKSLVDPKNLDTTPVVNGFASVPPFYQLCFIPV

IC50 [1]: 600 µM
Tmax [2]: 18 min
logD [3]: 1.4
clearance [4]: 28.3 mL/min/kg
logP [5]: 1.7
remaining at 1 h, 1 µM [8]: 93%
microsomal CLint [9]: 2.8 µL/min/mg
AUC [10]: 593 ng·h/mL
Papp A→B at 2 h [11]: 17.7 ×10⁻⁶ cm/s
Kp at 10 min [12]: 0.41
Tmax [13]: 48 min
AUC [14]: 3000 ng·h/mL
Ki [15]: 0.013 µM
remaining at 1 h, 1 µM [16]: 93%
Ratio [17]: 1.2
Cmax [18]: 900 ng/mL
Vd [19]: 0.8 L/kg
microsomal CLint [20]: 1.5 µL/min/mg
microsomal CLint [21]: 1.6 µL/min/mg
IC50 [22]: > 900 µM
half-life [23]: 60 min
IC50 [24]: > 900 µM
IC50 [27]: > 900 µM
IC50 [28]: 133 µM
Cmax [29]: 2020 ng/mL
Ki [30]: 1.78 µM
pKa [31]: 7.4
remaining at 1 h, 1 µM [32]: 95%
bioavailability [33]: 51%
solubility [34]: 7280 µg/mL (≈ 18.2 mM)
concentration at 10 min [35]: 250 ng/g
Structure (SMILES): CCc1ncc(-c2cc(C)no2)c(C2CCN(CC(=O)N3CCOCC3)CC2)n1
IC50 [6]: > 10 µM
Activity [7]: Active
Activity [25]: Active
Ratio Ki [26]: 137
